Experimental data taken from PubChem BioAssay AID1963845 (Molecular Pharmacology Branch, DTP, NCI, 2024).

System: 429239-143-T-J1-PDC complex spheroid viability
Experiment: Anticancer human tumor 429239-143-T-J1-PDC patient-derived small cell lung carcinoma cell line growth inhibition [POLQ]
Settings: for IC50: curve of first compound; for viability, T/C: stronger effect = lower value
Method in brief: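 Patient-derived tumour cells were co-cultured with HUVEC and mesenchymal stem cells as multicellular spheroids at 37 °C. They were treated with POLQ inhibitors (novobiocin, ART-558, RP6685) alone or combined with other agents. Top concentrations were at or near clinical Cmax (otherwise 10 microM; SN-38 at 1 microM), decreasing in half-log steps.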

[1] = second compound 0.0316 µM, first compound 0.0316 µM
[2] = second compound 0.0316 µM, first compound 0.1 µM
[3] = second compound 0.0316 µM, first compound 0.316 µM
[4] = second compound 0.0316 µM, first compound 1 µM
[5] = second compound 0.0316 µM, first compound 3.16 µM
[6] = second compound 0.0316 µM, first compound 10 µM
[7] = second compound 0.1 µM, first compound 0.0316 µM
[8] = second compound 0.1 µM, first compound 0.1 µM
[9] = second compound 0.1 µM, first compound 0.316 µM
[10] = second compound 0.1 µM, first compound 1 µM
[11] = second compound 0.1 µM, first compound 3.16 µM
[12] = second compound 0.1 µM, first compound 10 µM
[13] = second compound 0.316 µM, first compound 0.0316 µM
[14] = second compound 0.316 µM, first compound 0.1 µM
[15] = second compound 0.316 µM, first compound 0.316 µM
[16] = second compound 0.316 µM, first compound 1 µM
[17] = second compound 0.316 µM, first compound 3.16 µM
[18] = second compound 0.316 µM, first compound 10 µM
[19] = second compound 1 µM, first compound 0.0316 µM
[20] = second compound 1 µM, first compound 0.1 µM
[21] = second compound 1 µM, first compound 0.316 µM
[22] = second compound 1 µM, first compound 1 µM
[23] = second compound 1 µM, first compound 3.16 µM
[24] = second compound 1 µM, first compound 10 µM
[25] = second compound 3.16 µM, first compound 0.0316 µM
[26] = second compound 3.16 µM, first compound 0.1 µM
[27] = second compound 3.16 µM, first compound 0.316 µM
[28] = second compound 3.16 µM, first compound 1 µM
[29] = second compound 3.16 µM, first compound 3.16 µM
[30] = second compound 3.16 µM, first compound 10 µM
[31] = second compound 10 µM, first compound 0.0316 µM
[32] = second compound 10 µM, first compound 0.1 µM
[33] = second compound 10 µM, first compound 0.316 µM
[34] = second compound 10 µM, first compound 1 µM
[35] = second compound 10 µM, first compound 3.16 µM
[36] = second compound 10 µM, first compound 10 µM
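Further: luminescence signal used as surrogate measure of viable cells; spheroids exposed to compounds for seven days before readout.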
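Wherever viability, T/C is given: 100% = DMSO vehicle control viability as luminescence relative to vehicle.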

## COc1cc2cc(C(=O)CCC(=O)O)sc2cc1OC + Cc1cccc(N(C)C(=O)C2C(O)CCN2c2nc(C)cc(C(F)(F)F)c2C#N)c1
Second compound 0.0316 µM
  IC50: > 10 µM
Second compound 0.1 µM
  IC50: > 10 µM
Second compound 0.316 µM
  IC50: > 10 µM
Second compound 1 µM
  IC50: > 10 µM
Second compound 3.16 µM
  IC50: > 10 µM
Second compound 10 µM
  IC50: > 10 µM
[1]
  viability, T/C: 103%
[2]
  viability, T/C: 114%
[3]
  viability, T/C: 97.8%
[4]
  viability, T/C: 106%
[5]
  viability, T/C: 109%
[6]
  viability, T/C: 89.5%
[7]
  viability, T/C: 96.1%
[8]
  viability, T/C: 97.9%
[9]
  viability, T/C: 109%
[10]
  viability, T/C: 99.4%
[11]
  viability, T/C: 94.4%
[12]
  viability, T/C: 101%
[13]
  viability, T/C: 109%
[14]
  viability, T/C: 118%
[15]
  viability, T/C: 99.9%
[16]
  viability, T/C: 106%
[17]
  viability, T/C: 96%
[18]
  viability, T/C: 90.1%
[19]
  viability, T/C: 99.8%
[20]
  viability, T/C: 99.1%
[21]
  viability, T/C: 94.1%
[22]
  viability, T/C: 115%
[23]
  viability, T/C: 117%
[24]
  viability, T/C: 91.2%
[25]
  viability, T/C: 108%
[26]
  viability, T/C: 96.3%
[27]
  viability, T/C: 103%
[28]
  viability, T/C: 105%
[29]
  viability, T/C: 115%
[30]
  viability, T/C: 101%
[31]
  viability, T/C: 104%
[32]
  viability, T/C: 91.3%
[33]
  viability, T/C: 99.3%
[34]
  viability, T/C: 120%
[35]
  viability, T/C: 110%
[36]
  viability, T/C: 97.7%

## CC1COCCN1c1cc(-c2ccnn2C)c2ccnc(-c3ccn[nH]3)c2n1 (stereo unspecified) + COC1C(OC(N)=O)C(O)C(Oc2ccc3c(O)c(NC(=O)c4ccc(O)c(CC=C(C)C)c4)c(=O)oc3c2C)OC1(C)C
Second compound 0.0316 µM
  IC50: 0.0822 µM
Second compound 0.1 µM
  IC50: 0.0767 µM
Second compound 0.316 µM
  IC50: 0.0709 µM
Second compound 1 µM
  IC50: 0.116 µM
Second compound 3.16 µM
  IC50: 0.104 µM
Second compound 10 µM
  IC50: 0.0891 µM
[1]
  viability, T/C: 85.1%
[2]
  viability, T/C: 40.2%
[3]
  viability, T/C: 27.5%
[4]
  viability, T/C: 12.9%
[5]
  viability, T/C: 10.1%
[6]
  viability, T/C: 8.09%
[7]
  viability, T/C: 71.9%
[8]
  viability, T/C: 42%
[9]
  viability, T/C: 28.8%
[10]
  viability, T/C: 13.6%
[11]
  viability, T/C: 8.87%
[12]
  viability, T/C: 10.7%
[13]
  viability, T/C: 75.5%
[14]
  viability, T/C: 35.2%
[15]
  viability, T/C: 28.5%
[16]
  viability, T/C: 13.1%
[17]
  viability, T/C: 10.9%
[18]
  viability, T/C: 9.18%
[19]
  viability, T/C: 79.2%
[20]
  viability, T/C: 53.4%
[21]
  viability, T/C: 27.6%
[22]
  viability, T/C: 15.6%
[23]
  viability, T/C: 10.5%
[24]
  viability, T/C: 10.6%
[25]
  viability, T/C: 83.8%
[26]
  viability, T/C: 50.1%
[27]
  viability, T/C: 29.3%
[28]
  viability, T/C: 14.2%
[29]
  viability, T/C: 10.6%
[30]
  viability, T/C: 9.32%
[31]
  viability, T/C: 72.7%
[32]
  viability, T/C: 46.7%
[33]
  viability, T/C: 28%
[34]
  viability, T/C: 13.1%
[35]
  viability, T/C: 9.4%
[36]
  viability, T/C: 9.29%

## CC(C)n1c(=O)n(C)c2cnc3cc(F)c(-c4ccc(OCCCN5CCCCC5)nc4)cc3c21 + COC1C(OC(N)=O)C(O)C(Oc2ccc3c(O)c(NC(=O)c4ccc(O)c(CC=C(C)C)c4)c(=O)oc3c2C)OC1(C)C
Second compound 0.0316 µM
  IC50: > 10 µM
Second compound 0.1 µM
  IC50: > 10 µM
Second compound 0.316 µM
  IC50: > 10 µM
Second compound 1 µM
  IC50: > 10 µM
Second compound 3.16 µM
  IC50: > 10 µM
Second compound 10 µM
  IC50: > 10 µM
[1]
  viability, T/C: 107%
[2]
  viability, T/C: 86.6%
[3]
  viability, T/C: 99%
[4]
  viability, T/C: 109%
[5]
  viability, T/C: 104%
[6]
  viability, T/C: 85.4%
[7]
  viability, T/C: 102%
[8]
  viability, T/C: 93.7%
[9]
  viability, T/C: 82.7%
[10]
  viability, T/C: 96.8%
[11]
  viability, T/C: 82.9%
[12]
  viability, T/C: 84.7%
[13]
  viability, T/C: 109%
[14]
  viability, T/C: 91%
[15]
  viability, T/C: 82.3%
[16]
  viability, T/C: 103%
[17]
  viability, T/C: 90.6%
[18]
  viability, T/C: 72.5%
[19]
  viability, T/C: 93.2%
[20]
  viability, T/C: 104%
[21]
  viability, T/C: 91.5%
[22]
  viability, T/C: 96.9%
[23]
  viability, T/C: 81.5%
[24]
  viability, T/C: 70.2%
[25]
  viability, T/C: 101%
[26]
  viability, T/C: 84.8%
[27]
  viability, T/C: 90.9%
[28]
  viability, T/C: 100%
[29]
  viability, T/C: 87.6%
[30]
  viability, T/C: 83.6%
[31]
  viability, T/C: 86.9%
[32]
  viability, T/C: 85.8%
[33]
  viability, T/C: 88.7%
[34]
  viability, T/C: 102%
[35]
  viability, T/C: 74%
[36]
  viability, T/C: 88.4%
